According to patent US20110046223A1, “TREATMENT OF NEUROFIBROMATOSIS” (RAMOT AT TEL-AVIV UNIVERSITY LTD., priority 2006, published 2011):

What was measured:
phospho-ERK = assay: steady-state phospho-ERK, Western immunoblotting; type: cell-based, human
Experimental: Unless otherwise indicated, cells were lysed 48 hours after being treated with lysis buffer, as described in Haklai, et al., supra. […] Protein bands were visualized by ECL and quantified by densitometry with Image Master VDS-CL (Amersham) using TINA 2.0 software (Ray Tests). To obtain reliable comparisons between replicated experiments for statistical analysis, a standardization procedure was used, in which the density of each given protein band as recorded with its specific Ab, was normalized. […] The standard average density was defined as 1.0, and each of the individually determined bands was related to this value. […] Actin cytoskeletal elements were labeled with rhodamine-phalloidin, and digital fluorescence images were collected on a Zeiss LSM 510 confocal microscope fitted with fluorescein and rhodamine filters, as described in Gana-Weisz, M., et al., supra.
Next, to determine whether down-regulation of active Ras by FTS was accompanied by inhibition of Ras signaling, the effect of FTS on steady-state levels of phospho-ERK, phospho-Akt, and RalA-GTP as read-outs of the three prominent Ras pathways, Ras/Raf/MEK/ERK, Ras/PI3K/Akt, and Ras/RalGEF/RalA, respectively, was examined. […]

Ras-GTP = assay: serum-stimulated GTP loading of Ras, kinetic study; type: cell-based, human
Experimental: Unless otherwise indicated, cells were lysed 48 hours after being treated with lysis buffer, as described in Haklai, et al., supra. Lysates containing 50-100 μg protein were subjected to SDS-PAGE followed by Western immunoblotting, as described in Haklai, et al., supra.; Elad-Sfadia, G., Haklai, R., Ballan, E., Gabius, H. J., Kloog, Y., J. Biol. Chem. 277:37169-75 (2002); Paz, A., Haklai, R., Elad, G., Ballab, E., Kloog, Y., Oncogene 20:7486-93 (2000), with one of the following antibodies: 1:2000 pan-Ras Ab-3; 1:10,000 anti-phospho-ERK Ab; 1:2000 anti-ERK Ab; 1:1000 anti-Akt Ab; 1:2000 anti-phospho-Akt Ab; 1:500 antitubulin Ab; 1:5000 anti-RalA Ab; 1:1000 anti-p120 RasGAP Ab; or 1:200 anti-neurofibromin Ab. The immunoblots were then exposed either to 1:7500 peroxidase goat anti-mouse IgG or to 1:2000 peroxidase goat anti-rabbit IgG. Protein bands were visualized by ECL and quantified by densitometry with Image Master VDS-CL (Amersham) using TINA 2.0 software (Ray Tests). To obtain reliable comparisons between replicated experiments for statistical analysis, a standardization procedure was used, in which the density of each given protein band as recorded with its specific Ab, was normalized. Normalization was achieved by collecting and averaging all the data obtained for a given band (for example, for the Ras-GTP band) in a set of experiments, irrespective of cell type or treatment. The standard average density was defined as 1.0, and each of the individually determined bands was related to this value. Accordingly, the normalized value of a single band would be 1.0 if it was equal to the standard value, or would range between values above and below 1.0 (respectively representing values higher and lower than the standard). The normalized values thus obtained were used to calculate means±SD and, to determine, using Student's t-test, the statistical significance of differences between populations. Lysates containing 500 μg protein were used to determine Ras-GTP by the GST-RBD pull-down assay, and this was followed by Western immunoblotting with pan anti-Ras Ab as described in Elad-Sfadia, G., et al., supra. Lysates containing 500 μg protein were used to determine RalA-GTP by the GST-RalBD pulldown assay, followed by Western immunoblotting with anti-RalA Ab [Wolthuis, R. M., Zwartkruis, F., Moen, T. C., Bos, J. L. Ral. Curr. Biol. 8:471-4 (1998)]. Actin cytoskeletal elements were labeled with rhodamine-phalloidin, and digital fluorescence images were collected on a Zeiss LSM 510 confocal microscope fitted with fluorescein and rhodamine filters, as described in Gana-Weisz, M., et al., supra.
First, the time courses of serum-stimulated GTP loading of Ras and serum-stimulated activation of signals downstream of Ras were determined. […]

[1] = human, doses up to 1800 mg/day; cited from earlier work
STS26T cells = assay: soft agar assay, anchorage-independent growth; type: cell-based; details: Homo sapiens, STS-26T, 336 h, 2 weeks, read-out: inhibition of colony formation
Experimental: (§1) Noble agars (2% and 0.6%; Difco, Sparks, Md.) were prepared in double-distilled water and autoclaved. The 2% agar was melted and mixed with medium (DMEM X2 with 20% FCS, 100 μg/mL penicillin, and […]) and the mixture (50 μL) was placed in 96-well plates to provide the base agar (at a final concentration of 1%).
(§2) To determine whether FTS inhibited the transforming activity associated with NF-1-deficiency and to determine the effect of FTS on anchorage-independent growth, soft agar assays were performed. ST88-14 and STS26T cells were plated in soft agar and then treated with 0.1% DMSO as a control or with FTS (25 μM, 50 μM, or 75 μM) and grown for 3 weeks or 2 weeks, respectively. […] FTS inhibited colony formation of both cell lines; in the presence of 50 μM FTS, for example, colony formation was inhibited by 60% in STS26T cells and by 57% in ST88-14 cells. In the presence of 75 μM FTS, colony formation was inhibited by 84% and 87% in ST88-14 and STS26T cells, respectively.

ST88-14 cells = assay: soft agar assay, anchorage-independent growth; type: cell-based; details: Homo sapiens, 504 h, 3 weeks, read-out: inhibition of colony formation
Experimental: as §1, §2

SMILES: CC(C)=CCC/C(C)=C/CC/C(C)=C/CSc1ccccc1C(=O)O [FTS, S-farnesylthiosalicylic acid]
- steady-state phospho-ERK (phospho-ERK; all NF-1 cell lines): significant reduction
- increase in phospho-ERK (phospho-ERK; non-NF-1 STS26T cells, steady state): 10%-20%
- duration of the Ras signal in the presence of FTS (Ras-GTP; NF-1 cells, serum stimulation): 5 to 10 min
- serum-stimulated increase in Ras-GTP (Ras-GTP; STS26T cells, 20 μM FTS, serum-starved 24 hours, stimulated with 10% serum): strongly inhibited
- duration of the serum-stimulated signals (Ras-GTP, phospho-ERK, phospho-Akt) (Ras-GTP; all NF-1 cell lines): shortened the duration of the signals
- serum-stimulated increase in Ras-GTP (Ras-GTP; all NF-1 cell lines (T265P21, ST88-14, 90-8)): reduced
- dose-limiting toxicities [1]: no dose-limiting toxicities
- inhibition at 50 µM (STS26T cells; 50 μM FTS): 60%
- inhibition at 75 µM (STS26T cells; 75 μM FTS): 87%
- inhibition at 50 µM (ST88-14 cells; 50 μM FTS): 57%
- inhibition at 75 µM (ST88-14 cells; 75 μM FTS): 84%
